{
  "source": "patent US7569576B2",
  "about": "“Cyclic 1-(acyloxy)-alkyl prodrugs of GABA analogs, compositions and uses thereof” (XenoPort, Inc., priority 2002, dated 2009)",
  "origin": "cited, not measured here",
  "data": [
    {"smiles": "NCC1(CC(=O)O)CCCCC1", "note": "[gabapentin]", "values": [
      {"measurement": "toxicity (LD50, mouse)", "result": "more than 8000 mg/kg"}
    ]},
    {"smiles": "O=C1CC2(CCCCC2)CN1", "note": "[lactam 9]", "values": [
      {"measurement": "toxicity (LD50, mouse)", "result": 300, "unit": "mg/kg"}
    ]}
  ]
}
